# Measurements as given in patent publication US7879864B2, “Substituted 8-aminoalkoxy-xanthine compounds and compositions useful in the treatment of hyperlipidemia and diabetes” (Sanofi-Aventis Deutschland GmbH, priority 2004, dated 2011).
# Counter-ions that a name gives are not always drawn.
# System: not given
# Assay: not given
# Conditions: not given
row,SMILES,melting point [°C]
1,"CC(C)=CCn1c(O[C@@H]2CCCC[C@H]2CN)nc2c1c(=O)n(CC(=O)c1ccccc1)c(=O)n2C (single isomer, unassigned; diastereomer 1) [Example 38, trans-8-(2-Aminomethylcyclohexyloxy)-3-methyl-7-(3-methylbut-2-enyl)-1-(2-oxo-2-phenylethyl)-3,7-dihydropurine-2,6-dione (diastereomer 1)]",151.7

# Target: T1, DPP-IV from porcine kidney (Sus scrofa, UniProt P22411)
# T1 construct: DPP-IV from porcine kidney (Sigma, Munich); purchased Sigma, Munich; host or cells: porcine kidney
# Assay: Measurement of the DPP-IV activity (fluorimetric H-Ala-Pro-AFC conversion)
# Format: biochemical
# Conditions: DPP-IV 1 mU/ml, H-Ala-Pro-AFC 15 μM, Tris/HCl 40 mM pH 7.4, room temperature, typically 10 min
# Experimental: The activity of the compounds was assayed as follows: • Measurement of the DPP-IV activity:
# The reaction was carried out at room temperature for various times (typically 10 min) and stopped at the end of the reaction by adding 20 μl of ZnCl2 (1 M). […] When inhibitors were added, the added buffer volume was adapted so that a total volume of 200 μl was maintained for the assay mixture.
# T1 sequence (P22411 whole entry): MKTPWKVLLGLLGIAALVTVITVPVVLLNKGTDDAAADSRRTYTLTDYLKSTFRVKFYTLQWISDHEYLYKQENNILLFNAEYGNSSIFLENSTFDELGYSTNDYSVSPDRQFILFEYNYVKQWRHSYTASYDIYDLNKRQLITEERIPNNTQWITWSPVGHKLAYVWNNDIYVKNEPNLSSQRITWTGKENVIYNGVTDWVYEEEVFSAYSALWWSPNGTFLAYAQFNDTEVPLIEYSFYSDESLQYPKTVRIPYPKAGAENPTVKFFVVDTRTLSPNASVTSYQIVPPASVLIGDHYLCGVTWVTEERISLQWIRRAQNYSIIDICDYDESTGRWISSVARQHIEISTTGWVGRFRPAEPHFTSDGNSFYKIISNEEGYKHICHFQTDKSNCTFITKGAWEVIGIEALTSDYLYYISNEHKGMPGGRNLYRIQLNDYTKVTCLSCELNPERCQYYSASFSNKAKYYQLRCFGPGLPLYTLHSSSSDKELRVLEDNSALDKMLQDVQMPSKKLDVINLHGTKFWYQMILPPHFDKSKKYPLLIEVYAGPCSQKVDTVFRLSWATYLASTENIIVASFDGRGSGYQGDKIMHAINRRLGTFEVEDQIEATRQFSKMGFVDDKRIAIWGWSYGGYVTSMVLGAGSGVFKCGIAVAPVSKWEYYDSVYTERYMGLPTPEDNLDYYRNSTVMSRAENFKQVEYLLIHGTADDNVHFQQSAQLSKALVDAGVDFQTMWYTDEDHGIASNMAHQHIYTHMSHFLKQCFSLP
row,SMILES,IC50 [µM]
1,"CC(C)=CCn1c(OC2CCCCC2CN)nc2c1c(=O)n(CC(=O)c1ccccc1)c(=O)n2C (mixture of isomers) [Example 37, trans-8-(2-Aminomethylcyclohexyloxy)-3-methyl-7-(3-methylbut-2-enyl)-1-(2-oxo-2-phenylethyl)-3,7-dihydropurine-2,6-dione hydrochloride (mixture of diastereomers)]",0.0045
2,"CC(C)=CCn1c(OCC(N)Cc2ccc(Cl)cc2)nc2c1c(=O)n(CC(=O)c1ccccc1)c(=O)n2C (stereo not shown) [Example 3, 8-[2-Amino-3-(4-chlorophenyl)propoxyl]-3-methyl-7-(3-methylbut-2-enyl)-1-(2-oxo-2-phenylethyl)-3,7-dihydropurine-2,6-dione]",0.46
3,"CC(C)=CCn1c(OC[C@@H]2CCNC2)nc2c1c(=O)n(CC(=O)c1ccccc1)c(=O)n2C [Example 10, (R)-3-Methyl-7-(3-methylbut-2-enyl)-1-(2-oxo-2-phenylethyl)-8-(pyrrolidin-3-ylmethoxy)-3,7-dihydropurine-2,6-dione hydrochloride]",0.034
4,"CC(C)=CCn1c(OCC2CCCCN2)nc2c1c(=O)n(CC(=O)c1ccccc1)c(=O)n2C (stereo not shown) [Example 7, 3-Methyl-7-(3-methylbut-2-enyl)-1-(2-oxo-2-phenylethyl)-8-(piperidin-2-ylmethoxy)-3,7-dihydropurine-2,6-dione]",0.051
5,"CC(C)=CCn1c(OC[C@@H](C)N)nc2c1c(=O)n(CC(=O)c1ccccc1)c(=O)n2C [Example 11, (R)-8-(2-Aminopropoxy)-3-methyl-7-(3-methylbut-2-enyl)-1-(2-oxo-2-phenylethyl)-3,7-dihydropurine-2,6-dione]",0.1
6,"CC(C)=CCn1c(O[C@@H]2CCCC[C@@H]2CN)nc2c1c(=O)n(CC(=O)c1ccccc1)c(=O)n2C (relative stereo) [Example 28, cis-8-(2-Aminomethylcyclohexyloxy)-3-methyl-7-(3-methylbut-2-enyl)-1-(2-oxo-2-phenylethyl)-3,7-dihydropurine-2,6-dione]",0.013
7,"CC(C)=CCn1c(OC[C@H](C)N)nc2c1c(=O)n(CC(=O)c1ccccc1)c(=O)n2C [Example 4, (S)-8-(2-Aminopropoxy)-3-methyl-7-(3-methylbut-2-enyl)-1-(2-oxo-2-phenylethyl)-3,7-dihydropurine-2,6-dione]",0.028
8,"CC(C)=CCn1c(OCCN)nc2c1c(=O)n(CC(=O)c1ccccc1)c(=O)n2C [Example 2, 8-(2-Aminoethoxy)-3-methyl-7-(3-methylbut-2-enyl)-1-(2-oxo-2-phenylethyl)-3,7-dihydropurine-2,6-dione]",0.02
9,"CC(C)=CCn1c(OC[C@H]2CCNC2)nc2c1c(=O)n(CC(=O)c1ccccc1)c(=O)n2C [Example 9, (S)-3-Methyl-7-(3-methylbut-2-enyl)-1-(2-oxo-2-phenylethyl)-8-(pyrrolidin-3-ylmethoxy)-3,7-dihydropurine-2,6-dione hydrochloride]",0.12
